The text below walks through data of US20250214942A1, “INHIBITORS OF RECEPTOR INTERACTING PROTEIN KINASE I FOR THE TREATMENT OF DISEASE” (Board of Regents, The University of Texas System, priority 2019, published 2025).

Experiment [1] deals with human monocytic cell line U937. In words: Human U937 cellular necroptosis assay (TNFalpha + z-VAD-FMK, Cell Titer-Glo viability). Format: cell-based. The settings on record: U937 cells, 25 ng/mL human TNFalpha + 25 μM z-VAD-FMK, read-out: hU937 Avg IC50. In outline: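 Cells resuspended in phenol red-free RPMI with 10% FBS, stimulated with 25 ng/mL human TNFalpha plus 25 μM z-VAD-FMK, then given serially diluted compound for 22 h at 37° C, 5% CO2. Viability by Cell Titer-Glo 2.0 luminescence; IC50 from four-parameter logistic fit, averaged across runs.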
(In general: Cellular ATP, detected with luciferase, serves as a proxy for viable cell number.)

The target of a further experiment is RIPK1 (Homo sapiens (Human), UniProt Q13546). In words: ADP-Glo kinase assay (RIPK1 activity, conversion of ATP to ADP). The class given is biochemical. The note with it: 5 nM RIPK1, 50 μM ATP, 6 h reaction; read-out: RIPK1 Enzyme Avg IC50. In outline:
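ADP-Glo luminescence of ATP-to-ADP conversion by 5 nM RIPK1 with 50 μM ATP (final), 6 h reaction after 10 min compound preincubation at rt. Buffer was 50 mM HEPES pH 7.5, 30 mM MgCl2, 0.05% BSA, 0.02% CHAPS. IC50 from four-parameter logistic fit.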

Read-outs that look alike come from different tables or passages of the source.

RIPK1, sequence (Q13546 1-327): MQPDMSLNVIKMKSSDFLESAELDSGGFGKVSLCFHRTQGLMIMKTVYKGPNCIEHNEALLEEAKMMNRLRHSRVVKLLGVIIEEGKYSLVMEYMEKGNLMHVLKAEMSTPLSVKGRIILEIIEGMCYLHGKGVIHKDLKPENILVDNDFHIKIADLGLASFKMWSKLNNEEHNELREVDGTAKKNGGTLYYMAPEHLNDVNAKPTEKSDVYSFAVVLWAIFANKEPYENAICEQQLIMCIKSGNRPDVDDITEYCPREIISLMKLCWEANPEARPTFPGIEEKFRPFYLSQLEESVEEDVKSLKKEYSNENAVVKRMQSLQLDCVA

For `O=C(N1N=CCC1c1cc(F)cc(F)c1)C12CC(Cn3cc(-c4cnccn4)cn3)(C1)C2` (centres unmarked) [Example 112, (5-(3,5-difluorophenyl)-4,5-dihydro-1H-pyrazol-1-yl)(3-((4-(pyrazin-2-yl)-1H-pyrazol-1-yl)methyl)-bicyclo[1.1.1]pentan-1-yl)-methanone], the half-inhibitory concentration (IC50) (commonly the concentration needed to halve the response being measured) in experiment [1] (Homo sapiens, U-937, 22 h) turned out to be 285 nM; at RIPK1, 73 nM.

`N#Cc1cnn(CC23CC(C(=O)N4N=CCC4c4ccccc4)(C2)C3)c1` (centres unmarked) [Example 138, 1-((3-(5-phenyl-4,5-dihydro-1H-pyrazole-1-carbonyl)-bicyclo[1.1.1]pentan-1-yl)methyl)-1H-pyrazole-4-carbonitrile]: the IC50 in experiment [1] (Homo sapiens, U-937, 22 h) was 417 nM; on RIPK1 it was 113 nM.

As to `N#Cc1cnn2ccn(CC34CC(C(=O)N5N=CCC5c5cc(F)cc(F)c5)(C3)C4)c12` (centres unmarked) [Example 146, 1-((3-(5-(3,5-difluorophenyl)-4,5-dihydro-1H-pyrazole-1-carbonyl)bicyclo[1.1.1]-pentan-1-yl)methyl)-1H-imidazo[1,2-b]pyrazole-7-carbonitrile], the half-inhibitory concentration (IC50) in experiment [1] (Homo sapiens, U-937, 22 h) turned out to be 1920 nM; at RIPK1, 324 nM.

`N#Cc1ccc2c(cnn2CC23CC(C(=O)N4CCC4c4ccc(F)cc4)(C2)C3)c1` (centres unmarked) [Example 234, 1-((3-(2-(4-fluorophenyl)-azetidine-1-carbonyl)bicyclo-[1.1.1]pentan-1-yl)methyl)-1H-indazole-5-carbonitrile]: the 50% inhibitory concentration (IC50) in experiment [1] (Homo sapiens, U-937, 22 h) was determined as 1970 nM; on RIPK1, 211 nM.

As to `CC(Oc1cc(Cl)ncn1)C12CC(C(=O)N3CC(F)CC3c3cccc(F)c3)(C1)C2` (centres unmarked) [Example 43, (3-(1-((6-Chloropyrimidin-4-yl)oxy)ethyl)bicyclo[1.1.1]pentan-1-yl)(4-fluoro-2-(3-fluorophenyl)pyrrolidin-1-yl)methanone], the IC50 was determined as 4210 nM in experiment [1] (Homo sapiens, U-937, 22 h) and 1700 nM on RIPK1.

Turning to `N#Cc1cc2cnn(CC34CC(C(=O)N5N=CCC5c5cc(F)cc(F)c5)(C3)C4)c2cn1` (centres unmarked) [Example 213, 1-((3-(5-(3,5-difluorophenyl)-4,5-dihydro-1H-pyrazole-1-carbonyl)bicyclo[1.1.1]pentan-1-yl)methyl)-1H-pyrazolo[3,4-c]pyridine-5-carbonitrile], the half-maximal inhibitory concentration (IC50) in experiment [1] (Homo sapiens, U-937, 22 h) is 63 nM; at RIPK1, 33 nM.

For `Cc1cnn(CC23CC(C(=O)N4N=CCC4c4cc(F)cc(F)c4)(C2)C3)c1C#N` (centres unmarked) [Example 156, 1-((3-(5-(3,5-difluorophenyl)-4,5-dihydro-1H-pyrazole-1-carbonyl)bicyclo[1.1.1]-pentan-1-yl)methyl)-4-methyl-1H-pyrazole-5-carbonitrile], the IC50 in experiment [1] (Homo sapiens, U-937, 22 h) was 159 nM; on RIPK1, 38 nM.

Turning to `Cc1ccc(C2CC=NN2C(=O)C23CC(Cn4ncc5cc(C#N)ccc54)(C2)C3)nc1` (centres unmarked) [Example 174, 1-((3-(5-(5-methylpyridin-2-yl)-4,5-dihydro-1H-pyrazole-1-carbonyl)bicyclo[1.1.1]-pentan-1-yl)methyl)-1H-indazole-5-carbonitrile], the IC50 in experiment [1] (Homo sapiens, U-937, 22 h) came out at 63 nM; on RIPK1, 48 nM.

Regarding `O=C(N1N=CCC1c1cc(F)cc(F)c1)C12CC(CO)(C1)C2` (centres unmarked) [Example 208, (5-(3,5-Difluorophenyl)-4,5-dihydro-1H-pyrazol-1-yl)(3-(hydroxymethyl)bicyclo[1.1.1]pentan-1-yl)methanone], the IC50 was determined as 4300 nM in experiment [1] (Homo sapiens, U-937, 22 h) and 2270 nM on RIPK1.

With `N#Cc1ccc2c(cnn2CC23CC(C(=O)N4CCC4c4cccc(Cl)c4Cl)(C2)C3)c1` (centres unmarked) [Example 260, 1-((3-(2-(2,3-dichlorophenyl)-azetidine-1-carbonyl)bicyclo-[1.1.1]pentan-1-yl)methyl)-1H-indazole-5-carbonitrile], the 50% inhibitory concentration (IC50) came out at 5600 nM in experiment [1] (Homo sapiens, U-937, 22 h) and 528 nM on RIPK1.

For “(5-(3,5-difluorophenyl)-4,5-dihydro-1H-pyrazol-1-yl)(3-((6-fluoro-1H-benzo[d]-imidazol-1-yl)methyl)-bicyclo[1.1.1]pentan-1-yl)methanone and (5-(3,5-difluorophenyl)-4,5-dihydro-1H-pyrazol-1-yl)(3-((5-fluoro-1H-benzo[d]-imidazol-1-yl)methyl)-bicyclo[1.1.1]pentan-1-yl)methanone [Example 192]”, the 50% inhibitory concentration (IC50) was 197 nM in experiment [1] (22 h) and 80 nM on RIPK1.

For the compound `N#Cc1cnc2cnn(CC34CC(C(=O)N5N=CCC5c5cc(F)cc(F)c5)(C3)C4)c2c1` (centres unmarked) [Example 218, 1-((3-(5-(3,5-difluorophenyl)-4,5-dihydro-1H-pyrazole-1-carbonyl)bicyclo[1.1.1]pentan-1-yl)methyl)-1H-pyrazolo[4,3-b]pyridine-6-carbonitrile], the IC50 amounted to 113 nM in experiment [1] (Homo sapiens, U-937, 22 h) and 25 nM on RIPK1.

On to `N#Cc1cccc(C2CC=NN2C(=O)C23CC(Cn4cc(C#N)cn4)(C2)C3)c1` (centres unmarked) [Example 137, 1-((3-(5-(3-cyanophenyl)-4,5-dihydro-1H-pyrazole-1-carbonyl)bicyclo[1.1.1]-pentan-1-yl)methyl)-1H-pyrazole-4-carbonitrile], for which the 50% inhibitory concentration (IC50) in experiment [1] (Homo sapiens, U-937, 22 h) worked out at 2690 nM; at RIPK1, 379 nM.

`N#Cc1cccc(OCC23CC(C(=O)N4CC(F)CC4c4cccc(F)c4)(C2)C3)n1` (centres unmarked) [Example 94, 6-((3-(4-fluoro-2-(3-fluoro-phenyl)pyrrolidine-1-carbonyl)bicyclo[1.1.1]-pentan-1-yl)methoxy)-picolinonitrile]: the concentration for half-maximal inhibition (IC50) amounted to 994 nM in experiment [1] (Homo sapiens, U-937, 22 h) and 109 nM at RIPK1.

With `O=C(N1N=CCC1c1cncc(F)c1)C12CC(Cn3ncc4c(F)cccc43)(C1)C2` (centres unmarked) [Example 14, (3-((4-Fluoro-1H-indazol-1-yl)methyl)bicyclo[1.1.1]pentan-1-yl)(5-(5-fluoropyridin-3-yl)-4,5-dihydro-1H-pyrazol-1-yl)methanone], the half-inhibitory concentration (IC50) came out at 24 nM in experiment [1] (Homo sapiens, U-937, 22 h) and 12 nM on RIPK1.

Turning to `N#Cc1ccc2c(cnn2CC23CC(C(=O)N4CC(F)CC4c4cccc(F)c4)(C2)C3)c1` (centres unmarked) [Example 176, 1-((3-(4-fluoro-2-(3-fluoro-phenyl)pyrrolidine-1-carbonyl)bicyclo[1.1.1]-pentan-1-yl)methyl)-1H-indazole-5-carbonitrile], the 50% inhibitory concentration (IC50) is 87 nM in experiment [1] (Homo sapiens, U-937, 22 h) and 19 nM on RIPK1.

On to `N#Cc1ccc2c(cnn2CC23CC(C(=O)NCc4cc(F)cc(F)c4)(C2)C3)c1` [Example 261, 3-((5-cyano-1H-indazol-1-yl)methyl)-N-(3,5-difluoro-benzyl)bicyclo[1.1.1]pentane-1-carboxamide], for which the IC50 in experiment [1] (Homo sapiens, U-937, 22 h) was found to be 9470 nM; at RIPK1, 4520 nM.

As to `N#Cc1ccc2c(cnn2CC23CC(C(=O)N4CCC4c4ccc(Cl)cc4)(C2)C3)c1` (centres unmarked) [Example 233, 1-((3-(2-(4-chlorophenyl)-azetidine-1-carbonyl)bicyclo-[1.1.1]pentan-1-yl)methyl)-1H-indazole-5-carbonitrile], the 50% inhibitory concentration (IC50) came out at 1190 nM in experiment [1] (Homo sapiens, U-937, 22 h) and 223 nM at RIPK1.

Consider `O=C(N1CC(F)CC1c1cccc(F)c1)C12CC(Cn3ncc4c(F)cccc43)(C1)C2` (centres unmarked) [Example 83, (3-((4-fluoro-1H-indazol-1-yl)methyl)bicyclo[1.1.1]-pentan-1-yl)(4-fluoro-2-(3-fluorophenyl)pyrrolidin-1-yl)methanone], for which the half-inhibitory concentration (IC50) in experiment [1] (Homo sapiens, U-937, 22 h) is 67 nM; on RIPK1, 16 nM.

In the case of `NC(=O)c1cn(CC23CC(C(=O)N4N=CCC4c4cc(F)cc(F)c4)(C2)C3)nn1` (centres unmarked) [Example 54, 1-((3-(5-(3,5-difluorophenyl)-4,5-dihydro-1H-pyrazole-1-carbonyl)-bicyclo[1.1.1]pentan-1-yl)methyl)-1H-1,2,3-triazole-4-carboxamide], the IC50 in experiment [1] (Homo sapiens, U-937, 22 h) is 2640 nM; on RIPK1, 409 nM.

In the case of `N#Cc1ccc2c(cnn2CC23CC(C(=O)N4N=CCC4c4cnccn4)(C2)C3)c1` (centres unmarked) [Example 51, 1-((3-(5-(pyrazin-2-yl)-4,5-dihydro-1H-pyrazole-1-carbonyl)bicyclo[1.1.1]pentan-1-yl)methyl)-1H-indazole-5-carbonitrile], the IC50 in experiment [1] (Homo sapiens, U-937, 22 h) was determined as 40 nM; on RIPK1, 22 nM.

`COc1cccc(C(F)C23CC(C(=O)N4N=CCC4c4cc(F)cc(F)c4)(C2)C3)c1` (centres unmarked) [Example 226, (5-(3,5-difluorophenyl)-4,5-dihydro-1H-pyrazol-1-yl)(3-(fluoro(3-methoxyphenyl)-methyl)bicyclo[1.1.1]pentan-1-yl)methanone]: the half-inhibitory concentration (IC50) in experiment [1] (Homo sapiens, U-937, 22 h) worked out at 51 nM; at RIPK1, 35 nM.

Take `COc1ccc2cnn(CC34CC(C(=O)N5N=CCC5c5cc(F)cc(F)c5)(C3)C4)c2c1` (centres unmarked) [Example 73, (5-(3,5-difluorophenyl)-4,5-dihydro-1H-pyrazol-1-yl)(3-((6-methoxy-1H-indazol-1-yl)methyl)bicyclo[1.1.1]-pentan-1-yl)methanone]: the IC50 came to 527 nM in experiment [1] (Homo sapiens, U-937, 22 h) and 111 nM at RIPK1.

For the compound `N#Cc1ccc2cn(CC34CC(C(=O)N5N=CCC5c5cc(F)cc(F)c5)(C3)C4)nc2c1` (centres unmarked) [Example 56, 2-((3-(5-(3,5-difluorophenyl)-4,5-dihydro-1H-pyrazole-1-carbonyl)bicyclo[1.1.1]-pentan-1-yl)methyl)-2H-indazole-6-carbonitrile], the IC50 in experiment [1] (Homo sapiens, U-937, 22 h) was found to be 63 nM; on RIPK1 it was 19 nM.

Turning to `N#Cc1ccc(OCC23CC(C(=O)N4N=CCC4c4cc(F)cc(F)c4)(C2)C3)c(F)c1` (centres unmarked) [Example 333, 4-((3-(5-(3,5-difluorophenyl)-4,5-dihydro-1H-pyrazole-1-carbonyl)bicyclo[1.1.1]pentan-1-yl)methoxy)-3-fluoro-benzonitrile], the IC50 is 36 nM in experiment [1] (Homo sapiens, U-937, 22 h) and 16 nM at RIPK1.
